Values of other authors, collected in US20020182585A1, “Combination and method using EDTA, cystine, zinc and selenium for anti-thrombin effect and for anti-platelet aggregation and measurement of efficacy” (priority 2001, published 2002).

Conditions: EDTA binding of the metal cation; adapted from Schwartzenbach, 1957

First: [Cd+2] [Cd^++]
Second: [Co+2] [Co^++]
The “Stability Constant Log K” value of the first is higher: 16.5 for the first, 16.3 for the second.

Going from [Hg+2] [Hg^++] to [Ni+2] [Ni^++], the “Stability Constant Log K” value falls from 21.8 to 18.0.

In the case of [Pb+2] [Pb^++], the “Stability Constant Log K” value is listed as 18.5.
